This note sets out measurements from patent US8933232B2, “1,3,4-oxadiazole and 1,3,4-thiadiazole beta-lactamase inhibitors” (priority 2012, dated 2015).

Where a name gives a salt, the structure may show the parent alone.

The experiment relates to bacterial strains that express KPC β-lactamases. Description: Synergy MIC / standard BLI potentiation MIC assay against strains expressing KPC β-lactamases. The conditions noted are these: in the presence of a β-lactam; comparator Avibactam. In kind it is cell-based. On the procedure: The experimental protocol was performed according to Clinical and Laboratory Standards Institute (CLSI) guidelines with modifications as described below (CLSI guidelines can be derived from the CLSI document M07-A9 published in January 2012: “Methods for Dilution Antimicrobial Susceptibility Tests for Bacteria That Grow Aerobically; Approved Standard-Ninth Edition”).
To prepare for MIC testing, frozen glycerol stocks of clinical isolates (Klebsiella pneumoniae, Eschericia coli, Enterobacter spp, Citrobacter spp, or Pseudomonas aeruginosa) were used to streak for isolated colonies on rich, non-selective, tryptic soy agar containing 5% sheep's blood (TSAB). Frozen glycerol stocks of laboratory engineered, isogenic E. coli strains, which contain cloned β-lactamase expressing plasmids were used to streak for isolated colonies on rich, selective LB agar supplemented with 25 μg/mL tetracycline to maintain the plasmid. All strains were incubated at 37° C. for 18-24 hrs.
On the day of testing, primary cultures were started by scraping off 5-10 colonies from the TSAB plates containing clinical strains or the tetracycline supplemented LB plates containing engineered strains. The clinical strain material was suspended in ˜5 mL of cation adjusted Mueller Hinton Broth (CAMHB) in 14 mL culture tubes. The engineered strain material was suspended in CAMHB (supplemented with 25 μg/mL tetracycline) in 14 mL culture tubes. All strains were incubated at 37° C. with aeration (200 rpm) for ˜2 hrs until the optical density at 600 nm (OD600) was >0.1.
The two compound components of the assay were each diluted in CAMHB and added to the 96-well broth microdilution assay plates. 50 μL of the β-lactam was added to each well of the assay plate in 2-fold dilutions with final concentrations ranging from 128 to 0.13 μg/mL. 25 μL, of the BLI compound was added to all wells in the broth microdilution plates at a final concentration of 4 μg/mL. Inoculum cultures were prepared by standardizing the primary cultures to OD600=0.1 and then adding 20 μL of the adjusted primary culture per 1 mL CAMHB for clinical strains or CAMHB (supplemented with tetracycline at 100 μg/mL) for engineered strains, so that the final inoculum density was ˜10^5 colony forming units per milliliter. Diluted inoculum cultures were used to inoculate 25 μl, per well in 96-well broth microdilution assay plates. The final volume of each well was 100 μL and contained a β-lactam at different concentrations, a BLIcompound at 4 μg/mL concentration, the bacterial culture at an OD600 of approximately 0.001 and when necessary tetracycline at 25 μg/mL.
Plates were incubated for 18-20 hours at 37° C. with aeration (200 rpm). Following incubation, growth was confirmed visually placing plates over a viewing apparatus (stand with a mirror underneath) and then OD600 was measured using a SpectraMax 340PC384 plate reader (Molecular Devices, Sunnyvale, Calif.). Growth was defined as turbidity that could be detected with the naked eye or achieving minimum OD600 of 0.1. MIC values were defined as the lowest concentration producing no visible turbidity.
The synergy MIC (sMIC) assay determines the concentration of the BLI required to potentiate the activity of a fixed concentration of a β-lactam antibiotic against β-lactamase producing bacterial strains. The experimental protocol was performed according to Clinical and Laboratory Standards Institute (CLSI) guidelines with modifications as described below (CLSI guidelines can be derived from the CLSI document M07-A9 published in January 2012: “Methods for Dilution Antimicrobial Susceptibility Tests for Bacteria That Grow Aerobically; Approved Standard-Ninth Edition”). […]

With `N=C(N)NCC(O)Cc1nnc([C@@H]2CC[C@@H]3CN2C(=O)N3OS(=O)(=O)O)o1` (stereo partly drawn) [Compound 730, (2S,5R)-2-(5-(3-guanidino-2-hydroxypropyl)-1,3,4-oxadiazol-2-yl)-7-oxo-1,6-diazabicyclo[3.2.1]octan-6-yl hydrogen sulfate], the “more active than Avibactam for at least one bacterial strain that expresses KPC β-lactamase and/or better spectrum of activity against KPC strains” value (“more active than Avibactam … against KPC strains” below) is listed as “more active than Avibactam”.

Take `N=C(N)NC[C@@H](O)c1nnc([C@@H]2CC[C@@H]3CN2C(=O)N3OS(=O)(=O)O)o1` [Compound 731, (2S,5R)-2-(5-((R)-2-guanidino-1-hydroxyethyl)-1,3,4-oxadiazol-2-yl)-7-oxo-1,6-diazabicyclo[3.2.1]octan-6-yl hydrogen sulfate]: the “more active than Avibactam … against KPC strains” value is “more active than Avibactam”.

With `N=C(N)NC[C@H](O)c1nnc([C@@H]2CC[C@@H]3CN2C(=O)N3OS(=O)(=O)O)o1` [Compound 732, (2S,5R)-2-(5-((S)-2-guanidino-1-hydroxyethyl)-1,3,4-oxadiazol-2-yl)-7-oxo-1,6-diazabicyclo[3.2.1]octan-6-yl hydrogen sulfate], the “more active than Avibactam … against KPC strains” value is reported as “more active than Avibactam”.

For `CNCCCc1nnc([C@@H]2CC[C@@H]3CN2C(=O)N3OS(=O)(=O)O)o1` [Compound 734, 2S,5R)-2-(5-(3-(methylamino)propyl)-1,3,4-oxadiazol-2-yl)-7-oxo-1,6-diazabicyclo[3.2.1]octan-6-yl hydrogen sulfate], the “more active than Avibactam … against KPC strains” value is reported as “more active than Avibactam”.

For the compound `NCCCCc1nnc([C@@H]2CC[C@@H]3CN2C(=O)N3OS(=O)(=O)O)o1` [Compound 735, (2S,5R)-2-(5-(4-aminobutyl)-1,3,4-oxadiazol-2-yl)-7-oxo-1,6-diazabicyclo[3.2.1]octan-6-yl hydrogen sulfate], the “more active than Avibactam … against KPC strains” value is given as “more active than Avibactam”.

In the case of `O=C1N2C[C@@H](CC[C@H]2c2nnc(CCNCCO)o2)N1OS(=O)(=O)O` [Compound 736, (2S,5R)-2-(5-(2-((2-hydroxyethyl)amino)ethyl)-1,3,4-oxadiazol-2-yl)-7-oxo-1,6-diazabicyclo[3.2.1]octan-6-yl hydrogen sulfate], the “more active than Avibactam … against KPC strains” value is “more active than Avibactam”.

`CC(C)(N)Cc1nnc([C@@H]2CC[C@@H]3CN2C(=O)N3OS(=O)(=O)O)o1` [Compound 737, (2S,5R)-2-(5-(2-amino-2-methylpropyl)-1,3,4-oxadiazol-2-yl)-7-oxo-1,6-diazabicyclo[3.2.1]octan-6-yl hydrogen sulfate]: the “more active than Avibactam … against KPC strains” value was “more active than Avibactam”.

With `N=C(N)Nc1nnc([C@@H]2CC[C@@H]3CN2C(=O)N3OS(=O)(=O)O)o1` [Compound 738, (2S,5R)-2-(5-guanidino-1,3,4-oxadiazol-2-yl)-7-oxo-1,6-diazabicyclo[3.2.1]octan-6-yl hydrogen sulfate], the “more active than Avibactam … against KPC strains” value is on record as “more active than Avibactam”.

Take `N=C(N)NC1(Cc2nnc([C@@H]3CC[C@@H]4CN3C(=O)N4OS(=O)(=O)O)o2)CC1` [Compound 739, (2S,5R)-2-(5-((1-guanidinocyclopropyl)methyl)-1,3,4-oxadiazol-2-yl)-7-oxo-1,6-diazabicyclo[3.2.1]octan-6-yl hydrogen sulfate]: the “more active than Avibactam … against KPC strains” value is listed as “more active than Avibactam”.

For the compound `O=C1N2C[C@@H](CC[C@H]2c2nnc([C@H]3[C@@H]4CNC[C@@H]43)o2)N1OS(=O)(=O)O` [Compound 740, (2S,5R)-2-(5-(3-azabicyclo[3.1.0]hexan-6-yl)-1,3,4-oxadiazol-2-yl)-7-oxo-1,6-diazabicyclo[3.2.1]octan-6-yl hydrogen sulfate], the “more active than Avibactam … against KPC strains” value was “more active than Avibactam”.

For `N=C(N)N1CC(Cc2nnc([C@@H]3CC[C@@H]4CN3C(=O)N4OS(=O)(=O)O)o2)C1` [Compound 741, (2S,5R)-2-(5-((1-carbamimidoylazetidin-3-yl)methyl)-1,3,4-oxadiazol-2-yl)-7-oxo-1,6-diazabicyclo[3.2.1]octan-6-yl hydrogen sulfate], the “more active than Avibactam … against KPC strains” value is “more active than Avibactam”.

Consider `O=C1N2C[C@@H](CC[C@H]2c2nnc(CCC3CNC3)o2)N1OS(=O)(=O)O` [Compound 742, (2S,5R)-2-(5-(2-(azetidin-3-yl)ethyl)-1,3,4-oxadiazol-2-yl)-7-oxo-1,6-diazabicyclo[3.2.1]octan-6-yl hydrogen sulfate], for which the “more active than Avibactam … against KPC strains” value is given as “more active than Avibactam”.

On to `O=C1N2C[C@@H](CC[C@H]2c2nnc(CCCC3CNC3)o2)N1OS(=O)(=O)O` [Compound 743, (2S,5R)-2-(5-(3-(azetidin-3-yl)propyl)-1,3,4-oxadiazol-2-yl)-7-oxo-1,6-diazabicyclo[3.2.1]octan-6-yl hydrogen sulfate], for which the “more active than Avibactam … against KPC strains” value is “more active than Avibactam”.

On to `O=C1N2C[C@@H](CC[C@H]2c2nnc(COC3CNC3)o2)N1OS(=O)(=O)O` [Compound 744, (2S,5R)-2-(5-((azetidin-3-yloxy)methyl)-1,3,4-oxadiazol-2-yl)-7-oxo-1,6-diazabicyclo[3.2.1]octan-6-yl hydrogen sulfate], for which the “more active than Avibactam … against KPC strains” value was “more active than Avibactam”.

Turning to `O=C1N2C[C@@H](CC[C@H]2c2nnc(CCNC3CNC3)o2)N1OS(=O)(=O)O` [Compound 745, (2S,5R)-2-(5-(2-(azetidin-3-ylamino)ethyl)-1,3,4-oxadiazol-2-yl)-7-oxo-1,6-diazabicyclo[3.2.1]octan-6-yl hydrogen sulfate], the “more active than Avibactam … against KPC strains” value was “more active than Avibactam”.

Regarding `N=C(N)N1CC(NCc2nnc([C@@H]3CC[C@@H]4CN3C(=O)N4OS(=O)(=O)O)o2)C1` [Compound 746, (2S,5R)-2-(5-(((1-carbamimidoylazetidin-3-yl)amino)methyl)-1,3,4-oxadiazol-2-yl)-7-oxo-1,6-diazabicyclo[3.2.1]octan-6-yl hydrogen sulfate], the “more active than Avibactam … against KPC strains” value is “more active than Avibactam”.

With `N=C(N)N[C@H]1C[C@@H](c2nnc([C@@H]3CC[C@@H]4CN3C(=O)N4OS(=O)(=O)O)o2)C1` [Compound 749, 2S,5R)-2-(5-((1s,3R)-3-guanidinocyclobutyl)-1,3,4-oxadiazol-2-yl)-7-oxo-1,6-diazabicyclo[3.2.1]octan-6-yl hydrogen sulfate], the “more active than Avibactam … against KPC strains” value is “more active than Avibactam”.

Consider `O=C1N2C[C@@H](CC[C@H]2c2nnc(C3CC4(CNC4)C3)o2)N1OS(=O)(=O)O` [Compound 750, (2S,5R)-2-(5-(2-azaspiro[3.3]heptan-6-yl)-1,3,4-oxadiazol-2-yl)-7-oxo-1,6-diazabicyclo[3.2.1]octan-6-yl hydrogen sulfate], for which the “more active than Avibactam … against KPC strains” value is “more active than Avibactam”.

On to `N[C@H]1C[C@H](Cc2nnc([C@@H]3CC[C@@H]4CN3C(=O)N4OS(=O)(=O)O)o2)C1` [Compound 751, (2S,5R)-2-(5-(((1r,3S)-3-aminocyclobutyl)methyl)-1,3,4-oxadiazol-2-yl)-7-oxo-1,6-diazabicyclo[3.2.1]octan-6-yl hydrogen sulfate], for which the “more active than Avibactam … against KPC strains” value is given as “more active than Avibactam”.
